How the values were obtained:
wheat = assay: Pre-emergence method, damage to crop plants; assay type: in vivo
Description: Seeds of monocotyledonous and dicotyledonous weed plants and crop plants are laid out in wood-fiber pots in sandy loam and covered with soil. The compounds of the invention, formulated in the form of wettable powders (WP) or as emulsion concentrates (EC), are then applied to the surface of the covering soil in the form of an aqueous suspension or emulsion at a water application rate equating to 600 to 800 I/ha, with addition of 0.2% wetting agent. After the treatment, the pots are placed in a greenhouse and kept under good growth conditions for the trial plants. The damage to the test plants is scored visually after a test period of 3 weeks by comparison with untreated controls (herbicidal activity in percent (%): 100% activity=the plants have died, 0% activity=like control plants).

[1] = test system: Triticum aestivum (wheat); assay: Post-emergence method, damage to crop plants (also comparative experiments, TRZAS); assay type: in vivo
Protocol: Seeds of monocotyledonous and dicotyledonous weed and crop plants are laid out in sandy loam in wood-fiber pots, covered with soil and cultivated in a greenhouse under good growth conditions. 2 to 3 weeks after sowing, the test plants are treated at the one-leaf stage. The compounds of the invention, formulated in the form of wettable powders (WP) or as emulsion concentrates (EC), are then sprayed onto the green parts of the plants in the form of an aqueous suspension or emulsion at a water application rate equating to 600 to 800 I/ha, with addition of 0.2% wetting agent. After the test plants have been left to stand in the greenhouse under optimal growth conditions for about 3 weeks, the action of the preparations is assessed visually in comparison to untreated controls (herbicidal action in percent (%): 100% activity=the plants have died, 0% activity=like control plants).

[2] = pre-emergence, 320 g per hectare, 3 weeks
[3] = post-emergence, 20 g per hectare, about 3 weeks

SMILES	damage in wheat (wheat; [2])	damage in wheat [1, 3]	damage in wheat (wheat; in vivo)	damage in wheat ([1]; in vivo)
Cc1c(-c2cnn(C)c(=O)c2O)ccc(C(F)(F)F)c1SCC1CC1 [1-553]	no damage	no damage	–	–
Cc1c(-c2cnn(C)c(=O)c2O)ccc(C(F)(F)F)c1[S+]([O-])CC1CC1 (centres unmarked) [1-554]	–	no damage	–	–
Cc1c(-c2cnn(C)c(=O)c2O)ccc(C(F)(F)F)c1S(=O)(=O)CC1CC1 [1-555, 5-{3-[(cyclopropylmethyl)sulfonyl]-2-methyl-4-(trifluoromethyl)phenyl}-4-hydroxy-2-methylpyridazin-3(2H)-one]	–	–	no damage	no damage
COCCSc1c(C(F)(F)F)ccc(-c2cnn(C)c(=O)c2O)c1C [1-1069]	no damage	no damage	–	–
COCC[S+]([O-])c1c(C(F)(F)F)ccc(-c2cnn(C)c(=O)c2O)c1C (centres unmarked) [1-1070]	no damage	no damage	–	–
COCCS(=O)(=O)c1c(C(F)(F)F)ccc(-c2cnn(C)c(=O)c2O)c1C [1-1071]	no damage	no damage	–	–

— patent publication US20170096402A1, “5-(HETERO)ARYLPYRIDAZINONES AND THEIR USE AS HERBICIDES” (BAYER CROPSCIENCE AKTIENGESELLSCHAFT, priority 2014, published 2017)
